For 21 compounds, inhibition results are on record in patent US7511145B2 (Genelabs Technologies, Inc., priority 2003, dated 2009).

For the assay, the target named is T1, HCV-NS5b (Hepatitis C virus genotype 1b, UniProt Q9WMX2).
T1 construct: (His)6 (C); made in house; host or cells: XL-1 cells (E. coli), IPTG-inducible plasmid, nickel-NTA purification
The assay is described as follows: HCV-NS5b enzyme assay (incorporation of radiolabeled UTP). It counts as biochemical. The conditions noted are these: for inhibition at 33 µM: enzyme inhibition at compound concentration of 33 uM; for inhibition at 100 µM: read-out: % inh@100, enzyme inhibition at compound concentration of 100 uM. The text has this:
The coding sequence of NS5b protein was cloned by PCR from pFKI389luc/NS3-3′/ET as described by Lohmann, V., et al. (1999) Science 285, 110-113 using the following primers: […]
The cloned fragment was missing the C terminus 21 amino acid residues. The cloned fragment was inserted into an IPTG-inducible expression plasmid that provided an epitope tag (His)6 at the carboxy terminus of the protein.
The recombinant enzyme was expressed in XL-1 cells and after induction of expression, the protein was purified using affinity chromatography on a nickel-NTA column. Storage condition was 10 mM Tris-HCl pH 7.5, 50 mM NaCl, 0.1 mM EDTA, 1 mM DTT, 20% glycerol at −20° C.
The polymerase activity was assayed by measuring incorporation of radiolabeled UTP into a RNA product using a biotinylated, heteropolymeric template, which included a portion of the HCV genome. Typically, the assay mixture (50 μL) contained 10 mM Tris-HCl (pH 7.5), 5 mM MgCl2, 0.2 mM EDTA, 10 mM KCl, 1 unit/μL RNAsin, 1 mM DTT, 10 μM each of NTP, including [^3H]-UTP, and 10 ng/μL heteropolymeric template. Test compounds were initially dissolved in 100% DMSO and further diluted in aqueous buffer containing 5% DMSO. Typically, compounds were tested at concentrations between 1 nM and 100 μM. Reactions were started with addition of enzyme and allowed to continue at 37° C. for 2 hours. Reactions were quenched with 8 μL of 100 mM EDTA and reaction mixtures (30 μL) were transferred to streptavidin-coated scintillation proximity microtiter plates (FlashPlates) and incubated at 4° C. overnight. Incorporation of radioactivity was determined by scintillation counting.
Shown in Table IX below are the values for enzyme inhibition measured at compound concentrations of 100 and 33 uM, (% inh@[…] and % inh@33, respectively). The percent inhibition values are calculated from the differential incorporation of radioactivity compared to a control reaction without compound: % inhibition=100−[(CountsINH−CountsBKG)/CountsCTRL−CountsBKG)×100 where CountsINH is the signal of the testwell with inhibitor, CountsBKG is the background signal and CountsCTRL is the signal of a testwell without inhibitor.

On to `O=C(O)c1ccc2c(c1)nc(-c1ccc3nc(-c4ccccc4)cnc3c1)n2C1CCCCC1` [Compound 203, 1-Cyclohexyl-2-(2-phenyl-quinoxalin-6-yl)-1H-benzoimidazole-5-carboxylic acid], for which the inhibition at 33 µM was determined as 75% and the inhibition at 100 µM was determined as 97.5%.

Take `O=C(O)c1ccc2c(c1)nc(-c1ccc3nc(-c4cc(C(=O)N5CCCC5)ccc4-c4ccc(Cl)cc4)ccc3c1)n2C1CCCCC1` [Compound 204, 2-{2-[4′-Chloro-4-(pyrrolidine-1-carbonyl)-biphen-2-yl]-quinolin-6-yl}-1-cyclohexyl-1H-benzoimidazole-5-carboxylic acid]: the inhibition at 33 µM worked out at 99.7% and the inhibition at 100 µM was 101%.

`O=C(O)c1ccc2c(c1)nc(-c1ccc3ncc(-c4ccccc4)nc3c1)n2C1CCCCC1` [Compound 205, 1-Cyclohexyl-2-(3-phenyl-quinoxalin-6-yl)-1H-benzoimidazole-5-carboxylic acid]: the inhibition at 33 µM came out at 84.4% and the inhibition at 100 µM stood at 99%.

For `O=C(O)c1ccc2c(c1)nc(-c1ccc3ncc(-c4ccccc4)cc3c1)n2C1CCCCC1` [Compound 206, 1-Cyclohexyl-2-(3-phenyl-quinolin-6-yl)-1H-benzoimidazole-5-carboxylic acid], the inhibition at 33 µM was found to be 94.2% and the inhibition at 100 µM came out at 96.9%.

For `O=C(O)c1ccc2c(c1)nc(-c1ccc3c(c1)CCC(c1ccccc1)N3)n2C1CCCCC1` (stereo not drawn) [Compound 215, 1-Cyclohexyl-2-(2-phenyl-1,2,3,4-tetrahydro-quinolin-6-yl)-1H-benzoimidazole-5-carboxylic acid], the inhibition at 33 µM amounted to 99.2% and the inhibition at 100 µM is 101%.

For the compound `Cc1ccc2cc(-c3nc4cc(C(=O)N[C@@H](Cc5c[nH]c6ccc(O)cc56)C(=O)O)ccc4n3C3CCCCC3)ccc2n1` [Compound 230, 2-{[1-Cyclohexyl-2-(2-methyl-quinolin-6-yl)-1H-benzoimidazole-5-carbonyl]-amino}-3-(5-hydroxy-1H-indol-3-yl)-propionic acid], the inhibition at 33 µM stood at 92.7% and the inhibition at 100 µM was found to be 98.2%.

On to `O=C(N[C@@H](CO)C(=O)O)c1ccc2c(c1)nc(-c1ccc3nc(-c4ccccc4)ccc3c1)n2C1CCCCC1` [Compound 231, 2-{[1-Cyclohexyl-2-(2-phenyl-quinolin-6-yl)-1H-benzoimidazole-5-carbonyl]-amino}-3-hydroxy-propionic acid], for which the inhibition at 33 µM is 67% and the inhibition at 100 µM was found to be 97.5%.

For `NCCCC[C@H](NC(=O)c1ccc2c(c1)nc(-c1ccc3nc(-c4ccccc4)ccc3c1)n2C1CCCCC1)C(=O)O` [Compound 232, 6-Amino-2-{[1-cyclohexyl-2-(2-phenyl-quinolin-6-yl)-1H-benzoimidazole-5-carbonyl]-amino}-hexanoic acid], the inhibition at 33 µM came out at 60.5% and the inhibition at 100 µM stood at 80.2%.

As for `O=C(O)[C@@H]1CCCN1C(=O)c1ccc2c(c1)nc(-c1ccc3nc(-c4ccccc4)ccc3c1)n2C1CCCCC1` [Compound 233, 1-[1-Cyclohexyl-2-(2-phenyl-quinolin-6-yl)-1H-benzoimidazole-5-carbonyl]-pyrrolidine-2-carboxylic acid], the inhibition at 33 µM is 50% and the inhibition at 100 µM was 88.2%.

As to `O=C(N[C@@H](Cc1c[nH]c2ccc(O)cc12)C(=O)O)c1ccc2c(c1)nc(-c1ccc3nc(-c4ccccc4)cnc3c1)n2C1CCCCC1` [Compound 234, 2-{[1-Cyclohexyl-2-(2-phenyl-quinoxalin-6-yl)-1H-benzoimidazole-5-carbonyl]-amino}-3-(5-hydroxy-1H-indol-3-yl)-propionic acid], the inhibition at 33 µM is 98.6% and the inhibition at 100 µM amounted to 100%.

With `O=C(N[C@@H](Cc1c[nH]c2ccc(O)cc12)C(=O)O)c1ccc2c(c1)nc(-c1ccc3nc(-c4cc(C(=O)N5CCCC5)ccc4-c4ccc(Cl)cc4)ccc3c1)n2C1CCCCC1` [Compound 235, 2-[(2-{2-[4′-Chloro-4-(pyrrolidine-1-carbonyl)-biphen-2-yl]-quinolin-6-yl}-1-cyclohexyl-1H-benzoimidazole-5-carbonyl)-amino]-3-(5-hydroxy-1H-indol-3-yl)-propionic acid], the inhibition at 33 µM stood at 99.1% and the inhibition at 100 µM worked out at 99.5%.

With `O=C(N[C@@H](Cc1c[nH]c2ccc(O)cc12)C(=O)O)c1ccc2c(c1)nc(-c1ccc3ncc(-c4ccccc4)nc3c1)n2C1CCCCC1` [Compound 236, 2-{[1-Cyclohexyl-2-(3-phenyl-quinoxalin-6-yl)-1H-benzoimidazole-5-carbonyl]-amino}-3-(5-hydroxy-1H-indol-3-yl)-propionic acid], the inhibition at 33 µM worked out at 99.2% and the inhibition at 100 µM came to 99.2%.

`O=C(O)CC[C@H](NC(=O)c1ccc2c(c1)nc(-c1ccc3nc(-c4ccccc4)ccc3c1)n2C1CCCCC1)C(=O)O` [Compound 237, 2-{[1-Cyclohexyl-2-(2-phenyl-quinolin-6-yl)-1H-benzoimidazole-5-carbonyl]-amino}-pentanedioic acid]: the inhibition at 33 µM was 79.7% and the inhibition at 100 µM is 95.6%.

As for `O=C(N[C@@H](Cc1c[nH]c2ccc(O)cc12)C(=O)O)c1ccc2c(c1)nc(-c1ccc3ncc(-c4ccccc4)cc3c1)n2C1CCCCC1` [Compound 238, 2-{[1-Cyclohexyl-2-(3-phenyl-quinolin-6-yl)-1H-benzoimidazole-5-carbonyl]-amino}-3-(5-hydroxy-1H-indol-3-yl)-propionic acid], the inhibition at 33 µM was 97.6% and the inhibition at 100 µM is 98.4%.

As for `O=C(O)CCNC(=O)c1ccc2c(c1)nc(-c1ccc3nc(-c4ccccc4)cnc3c1)n2C1CCCCC1` [Compound 239, 3-{[1-Cyclohexyl-2-(2-phenyl-quinoxalin-6-yl)-1H-benzoimidazole-5-carbonyl]-amino}-propionic acid], the inhibition at 33 µM came out at 49.1% and the inhibition at 100 µM is 70.2%.

On to `O=C(N[C@@H](Cc1ccc(-c2ccccc2)cc1)C(=O)O)c1ccc2c(c1)nc(-c1ccc3nc(-c4ccccc4)cnc3c1)n2C1CCCCC1` [Compound 240, 3-Biphenyl-4-yl-2-{[1-cyclohexyl-2-(2-phenyl-quinoxalin-6-yl)-1H-benzoimidazole-5-carbonyl]-amino}propionic acid], for which the inhibition at 33 µM worked out at 95.7% and the inhibition at 100 µM is 96.1%.

For `O=C(N[C@@H](Cc1ccc(C(=O)c2ccccc2)cc1)C(=O)O)c1ccc2c(c1)nc(-c1ccc3nc(-c4ccccc4)cnc3c1)n2C1CCCCC1` [Compound 241, 3-(4-Benzoyl-phenyl)-2-{[1-cyclohexyl-2-(2-phenyl-quinoxalin-6-yl)-1H-benzoimidazole-5-carbonyl]-amino}-propionic acid], the inhibition at 33 µM was found to be 98% and the inhibition at 100 µM worked out at 98.4%.

For the compound `O=C(N[C@@H](CC1CCCCC1)C(=O)O)c1ccc2c(c1)nc(-c1ccc3nc(-c4ccccc4)cnc3c1)n2C1CCCCC1` [Compound 242, 3-Cyclohexyl-2-{[1-cyclohexyl-2-(2-phenyl-quinoxalin-6-yl)-1H-benzoimidazole-5-carbonyl]-amino}-propionic acid], the inhibition at 33 µM worked out at 97.4% and the inhibition at 100 µM is 97%.

For the compound `O=C(N[C@H](C(=O)O)C1CCCCC1)c1ccc2c(c1)nc(-c1ccc3nc(-c4ccccc4)cnc3c1)n2C1CCCCC1` [Compound 243, Cyclohexyl-{[1-cyclohexyl-2-(2-phenyl-quinoxalin-6-yl)-1H-benzoimidazole-5-carbonyl]-amino}-acetic acid], the inhibition at 33 µM was found to be 96% and the inhibition at 100 µM turned out to be 98.1%.

On to `O=C(O)C[C@H](NC(=O)c1ccc2c(c1)nc(-c1ccc3nc(-c4ccccc4)cnc3c1)n2C1CCCCC1)C(=O)O` [Compound 244, 2-{[1-Cyclohexyl-2-(2-phenyl-quinoxalin-6-yl)-1H-benzoimidazole-5-carbonyl]-amino}-succinic acid], for which the inhibition at 33 µM worked out at 75.7% and the inhibition at 100 µM came out at 97%.

As to `O=C(O)CC[C@H](NC(=O)c1ccc2c(c1)nc(-c1ccc3nc(-c4ccccc4)cnc3c1)n2C1CCCCC1)C(=O)O` [Compound 245, 2-{[1-Cyclohexyl-2-(2-phenyl-quinoxalin-6-yl)-1H-benzoimidazole-5-carbonyl]-amino}-pentanedioic acid], the inhibition at 33 µM was 73.2% and the inhibition at 100 µM came to 97.4%.
